Source: ChEMBL document CHEMBL1201862, “PubChem BioAssay data set” (2004)
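Values below derive from 48-hour exposures of cells grown in 96-well plates, with endpoints linearly interpolated between the two concentrations bracketing the appropriate inhibition level. The concentration for 50% growth inhibition is given as GI50.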 Calls of active or inactive are those of the source. Cut-off read from the data, not from the text of the source: active = GI50 up to about 1.1 µM and inactive = higher.

Experiments:
Assay in all cases: inhibition of tumour cell growth, NCI panel, 48 h
COLO 205 = test system: COLO 205
NCI-H226 = test system: NCI-H226
HCC 2998 = test system: HCC 2998
HL-60 = test system: HL-60
MDA-MB-435 = test system: MDA-MB-435
U-251 = test system: U-251
SK-MEL-2 = test system: SK-MEL-2
786-0 = test system: 786-0
OVCAR-8 = test system: OVCAR-8
SW-620 = test system: SW-620
SF-295 = test system: SF-295
NCI-H460 = test system: NCI-H460
MDA-N = test system: MDA-N
SNB-75 = test system: SNB-75
A549 = test system: A549
SK-MEL-5 = test system: SK-MEL-5
LOX IMVI = test system: LOX IMVI
SK-MEL-28 = test system: SK-MEL-28
HT-29 = test system: HT-29
HOP-62 = test system: HOP-62
SF-268 = test system: SF-268
OVCAR-4 = test system: OVCAR-4
SNB-19 = test system: SNB-19
ACHN = test system: ACHN
SK-OV-3 = test system: SK-OV-3
NCI-H23 = test system: NCI-H23
NCI-H522 = test system: NCI-H522
SN12C = test system: SN12C
K562 = test system: K562
Hs-578T = test system: Hs-578T
NCI/ADR-RES = test system: NCI/ADR-RES
MOLT-4 = test system: MOLT-4
OVCAR-3 = test system: OVCAR-3
HOP-92 = test system: HOP-92
EKVX = test system: EKVX
M14 = test system: M14
KM12 = test system: KM12
IGROV-1 = test system: IGROV-1
PC-3 = test system: PC-3
UACC-62 = test system: UACC-62
SR = test system: SR
RXF 393 = test system: RXF 393
MDA-MB-231 = test system: MDA-MB-231
DU-145 = test system: DU-145
TK-10 = test system: TK-10
MCF7 = test system: MCF7
Malme-3M = test system: Malme-3M
CCRF-CEM = test system: CCRF-CEM
HCT-15 = test system: HCT-15
OVCAR-5 = test system: OVCAR-5
RPMI-8226 = test system: RPMI-8226
T47D = test system: T47D
UACC-257 = test system: UACC-257
SF-539 = test system: SF-539
HCT-116 = test system: HCT-116
UO-31 = test system: UO-31
CAKI-1 = test system: CAKI-1
A498 = test system: A498

Cn1c2c(c3ccccc31)CCN1C(=O)CN(C(=O)C3CCCCC3)CC21 (stereo not drawn) was tested, and the GI50 (COLO 205) was > 100 µM (inactive), the GI50 (NCI-H226) was > 100 µM (inactive) and the GI50 (HCC 2998) was > 100 µM (inactive). The GI50 (HL-60) was > 100 µM (inactive), the GI50 (MDA-MB-435) was > 100 µM (inactive) and the GI50 (U-251) was > 100 µM (inactive). The GI50 (SK-MEL-2) was > 100 µM (inactive), the GI50 (786-0) was > 100 µM (inactive) and the GI50 (OVCAR-8) was > 100 µM (inactive). The GI50 (SW-620) was > 100 µM (inactive), the GI50 (SF-295) was > 100 µM (inactive) and the GI50 (NCI-H460) was > 100 µM (inactive). For the same compound, the GI50 (MDA-N) was > 100 µM (inactive), the GI50 (SNB-75) was > 100 µM (inactive) and the GI50 (A549) was > 100 µM (inactive). For the same compound, the GI50 (SK-MEL-5) was > 100 µM (inactive), the GI50 (LOX IMVI) was > 100 µM (inactive) and the GI50 (SK-MEL-28) was > 100 µM (inactive). The GI50 (HT-29) was > 100 µM (inactive), the GI50 (HOP-62) was > 100 µM (inactive) and the GI50 (SF-268) was > 100 µM (inactive). The GI50 (OVCAR-4) was > 100 µM (inactive), the GI50 (SNB-19) was > 100 µM (inactive) and the GI50 (ACHN) was > 100 µM (inactive). The GI50 (SK-OV-3) was > 100 µM (inactive), the GI50 (NCI-H23) was > 100 µM (inactive) and the GI50 (NCI-H522) was > 100 µM (inactive). The GI50 (SN12C) was > 100 µM (inactive), the GI50 (K562) was > 100 µM (inactive) and the GI50 (Hs-578T) was > 100 µM (inactive). The GI50 (NCI/ADR-RES) was > 100 µM (inactive), the GI50 (MOLT-4) was > 100 µM (inactive) and the GI50 (OVCAR-3) was > 100 µM (inactive). For the same compound, the GI50 (HOP-92) was > 100 µM (inactive), the GI50 (EKVX) was > 100 µM (inactive) and the GI50 (M14) was > 100 µM (inactive). For the same compound, the GI50 (KM12) was > 100 µM (inactive), the GI50 (IGROV-1) was > 100 µM (inactive) and the GI50 (PC-3) was > 100 µM (inactive). The GI50 (UACC-62) was > 100 µM (inactive), the GI50 (SR) was > 100 µM (inactive) and the GI50 (RXF 393) was > 100 µM (inactive). The GI50 (MDA-MB-231) was > 100 µM (inactive), the GI50 (DU-145) was > 100 µM (inactive) and the GI50 (TK-10) was > 100 µM (inactive). The GI50 (MCF7) was > 100 µM (inactive), the GI50 (Malme-3M) was > 100 µM (inactive) and the GI50 (CCRF-CEM) was > 100 µM (inactive). The GI50 (HCT-15) was over 100 µM, the GI50 (OVCAR-5) was > 100 µM (inactive) and the GI50 (RPMI-8226) was > 100 µM (inactive). The GI50 (T47D) was > 100 µM (inactive), the GI50 (UACC-257) was > 100 µM (inactive) and the GI50 (SF-539) was > 100 µM (inactive). The GI50 (HCT-116) was > 100 µM (inactive) and the GI50 (UO-31) was > 100 µM (inactive).

For CC1(C)O[C@@H]2[C@@H](COC(C)(C)O[C@H]2C2SCCCS2)O1, the GI50 (COLO 205) was > 100 µM (inactive), the GI50 (HCC 2998) was > 100 µM (inactive) and the GI50 (CAKI-1) was > 100 µM (inactive). For the same compound, the GI50 (MDA-MB-435) was > 100 µM (inactive), the GI50 (U-251) was > 100 µM (inactive) and the GI50 (SK-MEL-2) was > 100 µM (inactive). The GI50 (786-0) was > 100 µM (inactive), the GI50 (OVCAR-8) was > 100 µM (inactive) and the GI50 (SW-620) was > 100 µM (inactive). The GI50 (SF-295) was > 100 µM (inactive), the GI50 (NCI-H460) was > 100 µM (inactive) and the GI50 (MDA-N) was > 100 µM (inactive). For the same compound, the GI50 (A549) was > 100 µM (inactive), the GI50 (SK-MEL-5) was > 100 µM (inactive) and the GI50 (SK-MEL-28) was > 100 µM (inactive). The GI50 (HT-29) was > 100 µM (inactive), the GI50 (HOP-62) was > 100 µM (inactive) and the GI50 (SF-268) was > 100 µM (inactive). The GI50 (OVCAR-4) was > 100 µM (inactive), the GI50 (SNB-19) was > 100 µM (inactive) and the GI50 (ACHN) was > 100 µM (inactive). For the same compound, the GI50 (SK-OV-3) was > 100 µM (inactive), the GI50 (NCI-H23) was > 100 µM (inactive) and the GI50 (NCI-H522) was > 100 µM (inactive). The GI50 (SN12C) was > 100 µM (inactive), the GI50 (K562) was > 100 µM (inactive) and the GI50 (NCI/ADR-RES) was > 100 µM (inactive). For the same compound, the GI50 (MOLT-4) was > 100 µM (inactive), the GI50 (OVCAR-3) was > 100 µM (inactive) and the GI50 (HOP-92) was 92.7 µM (inactive). For the same compound, the GI50 (M14) was > 100 µM (inactive), the GI50 (KM12) was > 100 µM (inactive) and the GI50 (A498) was > 100 µM (inactive). The GI50 (PC-3) was > 100 µM (inactive), the GI50 (UACC-62) was > 100 µM (inactive) and the GI50 (RXF 393) was > 100 µM (inactive). The GI50 (MDA-MB-231) was > 100 µM (inactive), the GI50 (DU-145) was > 100 µM (inactive) and the GI50 (MCF7) was > 100 µM (inactive). For the same compound, the GI50 (Malme-3M) was > 100 µM (inactive), the GI50 (HCT-15) was over 100 µM and the GI50 (OVCAR-5) was > 100 µM (inactive). The GI50 (RPMI-8226) was > 100 µM (inactive), the GI50 (T47D) was > 100 µM (inactive) and the GI50 (SF-539) was > 100 µM (inactive). For the same compound, the GI50 (HCT-116) was > 100 µM (inactive) and the GI50 (UO-31) was > 100 µM (inactive).
